Laboratory results: patent US20190125772A1, “IMPROVED DRUG COMBINATIONS FOR DRUG-RESISTANT AND DRUG-SENSITIVE MULTIPLE MYELOMA” (priority 2015, published 2019)

Experiments:
[1] = tested on: RPMI 8226 (Bortezomib-sensitive) versus THLE-2 healthy control cells; test: FSC in vitro cellular assay, output = cell viability of THLE-2 minus cell viability of RPMI 8226, with linear regression and response surface maps; format: cell-based; conditions: for drug candidate assessment from two-drug interaction terms: first iteration, interaction coefficients with desirable candidates
Text: This is expressed as a therapeutic window (% Output) that is the difference in percentage (%) viability between treated multiple myeloma and THLE-2 cells.

[2] = tested on: Bortezomib-sensitive RPMI 8226 multiple myeloma cells; test: Inhibitory concentrations (ICx, inhibition of cell growth) of the drugs in FSC-derived optimal combinations, Bortezomib-sensitive multiple myeloma; format: cell-based; conditions: concentration of the single drug as used in optimal combinations
Text: FIG. 8: Table showing the design of three iterations. IC20 represents 20% inhibitory concentration, which is the dosage of drug for 20% inhibition of cell growth. The first and second iterations are drug screening experiments to remove unfavorable drug candidates.
FIG. 14: Multi-drug optimization experimental assessment of prescribed combinations and output. […] The calculated y from the equation (FIG. 13) is the output as shown here.
In each iteration (experiment run), a list of drug combinations used is based on an experimental design methodology that aims to reduce the number of experiments to obtain sufficient information to build a mathematical equation.
After the list of drug combinations is determined, the drug combinations are applied to an in vitro cellular assay. A healthy control cell (THLE-2) is used to determine liver toxicity caused by drug treatment. Drug efficacy is determined using the B lymphocyte cancer cell (RPMI 8226). Favorable drug combinations would maximize cancer cell killing while minimizing health cell death. […] The experiments are conducted in a rapid, high-throughput manner using an automated liquid handler machine.

**Q.** CO[C@@]12[C@H](COC(N)=O)C3=C(C(=O)C(C)=C(N)C3=O)N1C[C@@H]1N[C@@H]12 [Mitomycin C] was tested. Which “drug candidate assessment from two-drug interaction terms” value ([1]; second attempt) did it give?
**A.** The value was “can be eliminated”.

**Q.** For CC(C)C[C@H](NC(=O)[C@H](CCc1ccccc1)NC(=O)CN1CCOCC1)C(=O)N[C@@H](Cc1ccccc1)C(=O)N[C@@H](CC(C)C)C(=O)[C@@]1(C)CO1 [Carfilzomib, (2S)-N-((S)-1-((S)-4-methyl-1-((R)-2-methyloxiran-2-yl)-1-oxopentan-2-ylcarbamoyl)-2-phenylethyl)-2-((S)-2-(2-morpholinoacetamido)-4-phenylbutanamido)-4-methylpentanamide], which “effect of presence or absence of the drug on the output” value ([1]; third iteration, other four drugs kept at 100%) is on record?
**A.** The value was “does not change the output”.

**Q.** For Nc1ncn([C@H]2C[C@H](O)[C@@H](CO)O2)c(=O)n1 [Decitabine, 5-aza-2′-deoxycytidine], which “drug candidate assessment from two-drug interaction terms” value ([1]; first attempt) is on record?
**A.** The value was “can be eliminated”.

**Q.** What does the source list for O.O=P1(N(CCCl)CCCl)NCCCO1 (stereo not shown) [Cyclophoshamide monohydrate]?
**A.** drug candidate assessment from two-drug interaction terms ([1]; first attempt): can be eliminated; drug candidate assessment from two-drug interaction terms ([1]; second attempt): can be eliminated

**Q.** How did the IC8.75 [2] turn out when Cc1[nH]c2ccccc2c1CCNCc1ccc(/C=C/C(=O)NO)cc1 [Panobinostat, (2E)-N-hydroxy-3-[4-({[2-(2-methyl-1H-indol-3-yl)ethyl]amino}methyl)phenyl]acrylamide] was run?
**A.** The IC8.75 was roughly 0.0003239 µM.

**Q.** What about the IC17.5 [2] of the same compound?
**A.** Its IC17.5 is roughly 0.0005905 µM.

**Q.** And the IC26.25 [2]?
**A.** Its IC26.25 is roughly 0.0008734 µM.

**Q.** What about the IC35 [2] of the same compound?
**A.** Its IC35 is roughly 1.195 nM.

**Q.** What about the IC8.75 ([2]; listed as Panobinostal) of the same compound?
**A.** The IC8.75 was “IC8.75/[3.239E−4 μM]”.

**Q.** And the IC17.5 ([2]; listed as Panobinostal)?
**A.** The IC17.5 was “IC17.5/[5.905E−4 μM]”.

**Q.** What about the IC26.25 ([2]; listed as Panobinostal) of the same compound?
**A.** The IC26.25 was “IC26.25/[8.734E−4 μM]”.

**Q.** And the IC35 ([2]; listed as Panobinostal)?
**A.** The IC35 was “IC35/[1.195E−3 μM]”.
